Results reported in patent US20210179577A1, “AROMATIC SULFONAMIDE DERIVATIVES FOR THE TREATMENT OF ISCHEMIC STROKE” (Bayer Aktiengesellschaft, priority 2017, published 2021).

System: Sprague Dawley (SD) rats
Assay: tMCAO-Induced Ischemic Stroke Model in Rats
Format: in vivo, rat
Details: per os twice a day for seven days, from day 8 on, p<5% vs vehicle treated tMCAO-group
Experimental: Transient middle cerebral artery occlusion (tMCAO) was performed in approximately 3 months old male Sprague Dawley (SD) rats according to the method described by Schmid-Elsaesser et al. [Stroke. 1998; 29(10):2162-2170]. In particular, the right common carotid artery (CCA) was exposed through a midline neck incision and carefully dissected free from surrounding nerves and fascia—from its bifurcation to the base of the skull. […] The ECA was dissected further distally and coagulated along with the terminal lingual and maxillary artery branches, just before their bifurcation. The internal carotid artery (ICA) was isolated and carefully separated from the adjacent vagus nerve, and the pterygopalatine artery was ligated close to its origin with a 5-0 nylon suture. Thereafter, a 4-0 silk suture was tied loosely around the mobilized ECA stump, and a 4 cm length of Doccol 4-0 monofilament suture (coated with silicone) was inserted through the proximal ECA into the ICA and thence into the circle of Willis, effectively occluded the MCA. The surgical wound was closed and the animals were returned to their cages for recovery from anesthesia. Two hours after occlusion, rats were re-anesthetized and the monofilament was withdrawn to allow reperfusion. The wound was closed again and rats were returned to their cages.
Four groups of rats with 12-15 rats per group were included into the study. […]

With N#Cc1cnn(-c2ccc(NC(=O)Cc3ccccc3Cl)cc2S(N)(=O)=O)c1 [Example 39, 2-(2-Chlorophenyl)-N-[4-(4-cyano-1H-pyrazol-1-yl)-3-sulfamoylphenyl]acetamide] the “modified neurologic severity score (mNSS)” value was “significant smaller mNSS than the vehicle treated tMCAO-group”.
